Where a SMILES comes first, the peptide text is derived from it. [ ]: non-standard residue; d: D form. Nle = CCCC[C@H](N)C(=O)O

What all share (format): binding
One test has as its target T1, Bcl-xL/BODIPY-BAK (Homo sapiens, UniProt Q07817, DEL26-81).
T1 construct: pET28a His-SUMO Bcl-xL (1-198, missing 26-81); His-SUMO (N, cleaved yes); made in house; host or cells: E. coli Rosetta 2
The test is described as follows: Fluorescence anisotropy competition assay, inhibition of Bcl-xL/BODIPY-BAK interaction. The method, then: (§1) To profile the binding behaviour of the constrained peptides we tested them in both competition displacement assays and direct binding assays. […] Of particular interest was the potential for the introduction of a constraint to have differential effects on protein specificity/selectivity. […] We next tested the constrained peptides in inhibition assays (Fig. 3a and b and Table 2). […]
(§2) constructs were over-expressed in the E. coli strain Rosetta 2. Cells were resuspended in 50mM TRIS pH 8.0, 500mM NaCl, 15mM Imidazole and lysed by sonication. The clarified lysate was applied to a 5ml HisTrap column equilibrated with 50mM TRIS pH 8.0, 500mM NaCl, 15mM Imidazole. The HisTrap was then washed with 10 CV of 50mM TRIS pH 8.0, 500mM NaCl, 15mM Imidazole followed by 10 CV 50mM TRIS pH 8.0, 500mM NaCl, 25mM Imidazole. The fusion proteins were eluted in 50mM TRIS pH 8.0, 500mM NaCl, 300mM Imidazole. TheHis-SUMO tag was removed in overnight in dialysis into 50mM TRIS pH 8.0, 250mM NaCl in the presence of Smt3 protease, Ulp1, overnight at 4°C. Uncleaved material and His-SUMO were removed by reapplication of the sample to a HisTrap in 50mM TRIS pH 8.0, 250mM NaCl and the flow through containing Mcl- […]
(§3) The proteins were then filtered before further purification on a Superdex 75 (GE […]
(§4) proteins were concentrated and stored at -80°C.
(§5) The assays were performed as detailed in 10, 11.
(§6) The buffers used for fluorescence anisotropy were either phosphate buffer (40 mM sodium phosphate, 200 mM sodium chloride, 0.02 mg ml-1 bovine serum albumin, pH 7.50) or Tris buffer (50 mM Tris, 140 mM sodium chloride, pH 7.50). Phosphate buffer was used for all competition assays […]
(§7) Assays were run in 96 or 384 well Optiplates and were scanned using a Perkin Elmer EnVisionTM 2103 MultiLabel plate reader. Fluorescein labelled peptides used an excitation and emission wavelength of 480 (30) nm and 535 (40) nm respectively (dichroic mirror 505 nm) whilst BODIPY labelled peptides used an excitation and emission wavelength of 531 (25) nm and 595 (60) nm respectively (dichroic mirror 555 nm), […]
(§8) Plates were read after 1 h […]
(§9) respectively. Plates were read after 1 h. […]
(§10) Processing of fluorescence anisotropy data
(§11) Fluorescence anisotropy data was processed using Microsoft Excel to calculate intensity, anisotropy […]
(§12) b (λ(rmax − r) + r − rmin) r = anisotropy, I = total intensity, P = perpendicular intensity, S = parallel intensity, Lb = fraction ligand bound, λ = Ibound/Iunbound , G = 1= instrumental factor. […]
(§13) the calculation of IC50 and EC50) or to the Kd model for the extraction of Kd values:
(§14) Where for the logisitic model; y = r = anisotropy, xo = mid-point of the curve between the rmax and rmin […]
(§15) For the Kd model; y = Lb*[FL], K = Kd, [FL] = Concentration of fluorescent ligand.

The next test addresses T2, Mcl-1/FITC-NOXA-B (Homo sapiens, UniProt Q07820).
T2 construct: His-SUMO (N, cleaved yes); made in house; host or cells: E. coli Rosetta 2
The test is described as follows: Fluorescence anisotropy competition assay, inhibition of Mcl-1/FITC-NOXA-B interaction. The procedure: as §1, §2, §3, §4, §5, §6, §7, §8, §9, §10, §11, §12, §13, §14, §15
(In general: Polarisation of emitted light reports the rotation of a fluorescent probe.)

The target in a further test is T3, Bcl-xL (Homo sapiens, UniProt Q07817, DEL26-81).
T3 construct: pET28a His-SUMO Bcl-xL (1-198, missing 26-81); made in house; host or cells: E. coli Rosetta 2
T3 sequence (Q07817 with tags, fused parts or gaps DEL26-81): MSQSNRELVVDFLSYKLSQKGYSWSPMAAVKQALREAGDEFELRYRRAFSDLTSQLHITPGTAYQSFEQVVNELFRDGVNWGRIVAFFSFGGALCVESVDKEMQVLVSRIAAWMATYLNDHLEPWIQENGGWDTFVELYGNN
In words: Surface plasmon resonance (SPR), peptides flowed over immobilised His-SUMO Bcl-xL. The note with it: SPR Biacore 3000, His-SUMO Bcl-xL on Ni-NTA chip, PBS with 0.01 mg/mL BSA, 0.1% Tween 20, 1:1 model, average of at least 3 data sets; for Kd: read-out: Bcl-xL K d; for koff: read-out: Bcl-xL k off; for kon: read-out: Bcl-xL k on. The procedure: To investigate how the hydrocarbon constraint affects binding kinetics, we established a surface plasmon resonance (SPR) based assay. […] BID-WT and BID-MM were then flowed over the immobilised protein. […] These experiments were repeated for the BIM series of peptides.
SPR of BIM series of peptides
The binding kinetics and affinities were analysed by SPR (Biacore 3000). […]
immobilised on an Ni-NTA chip non-covalently in PBS with 0.01mg/ML BSA and 0.1% Tween 20 […]
(Running buffer). […] For the […]
the peptides were diluted into running buffer. Experiments were run at 40ul/min in running buffer.
20 minute dissociation period. The binding kinetic parameters were evaluated with BIA-Evaluation software (BIAcore 3000) in which all data sets were fit to a simple 1:1 (Langmuir) binding model. […]
(1 picture or pasted object on this page, not shown here)
(In general: Surface plasmon resonance follows binding to a sensor surface in real time, without labels.)

T1 sequence (Q07817 with tags, fused parts or gaps DEL26-81): as above
T2 sequence (Q07820 172-327): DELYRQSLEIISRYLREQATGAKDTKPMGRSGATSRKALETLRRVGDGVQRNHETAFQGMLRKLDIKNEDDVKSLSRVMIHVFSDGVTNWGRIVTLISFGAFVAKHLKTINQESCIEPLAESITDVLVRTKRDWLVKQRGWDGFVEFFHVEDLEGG

As a reminder, the IC50 is the midpoint of a concentration-inhibition curve. `CCCC[C@H](NC(=O)[C@]1(C)CCCC=CCCC[C@](C)(NC(=O)[C@H](C)NC(=O)[C@H](CC(C)C)NC(=O)[C@H](Cc2c[nH]cn2)NC(=O)[C@H](CCCNC(=N)N)NC(=O)[C@H](C)NC(=O)[C@@H](NC(=O)[C@H](CC(N)=O)NC(=O)[C@H](CCCNC(=N)N)NC(=O)[C@@H](NC(=O)[C@@H](NC(=O)[C@H](CC(=O)O)NC(=O)[C@H](CCC(=O)O)NC(C)=O)[C@@H](C)CC)[C@@H](C)CC)[C@@H](C)CC)C(=O)N[C@@H](C(C)C)C(=O)NCC(=O)N[C@@H](CC(=O)O)C(=O)N1)C(=O)N[C@@H](CC(=O)O)C(=O)N[C@@H](CCCNC(=N)N)C(=O)N[C@@H](CO)C(=O)N[C@H](C(=O)N[C@@H](Cc1c[nH]c2ccccc12)C(N)=O)[C@@H](C)CC` [BID-DM] came in with an IC50 on Bcl-xL/BODIPY-BAK of 1.14 ± 0.04 µM. At Mcl-1/FITC-NOXA-B, this compound yielded an IC50 of 0.8 ± 0.07 µM. For the same compound, on Bcl-xL, the Kd was 0.178 ± 0.052 µM, the koff is 0.003 s⁻¹ and the kon is 17500 M⁻¹ s⁻¹.

`CCCC[C@H](NC(=O)[C@@H]1CCC/C=C\CCC[C@H](NC(=O)[C@H](C)NC(=O)[C@H](CC(C)C)NC(=O)[C@H](Cc2c[nH]cn2)NC(=O)[C@H](CCCNC(=N)N)NC(=O)[C@H](C)NC(=O)[C@@H](NC(=O)[C@H](CC(N)=O)NC(=O)[C@H](CCCNC(=N)N)NC(=O)[C@@H](NC(=O)[C@@H](NC(=O)[C@H](CC(=O)O)NC(=O)[C@H](CCC(=O)O)NC(C)=O)[C@@H](C)CC)[C@@H](C)CC)[C@@H](C)CC)C(=O)N[C@@H](C(C)C)C(=O)NCC(=O)N[C@@H](CC(=O)O)C(=O)N1)C(=O)N[C@@H](CC(=O)O)C(=O)N[C@@H](CCCNC(=N)N)C(=O)N[C@@H](CO)C(=O)N[C@H](C(=O)N[C@@H](Cc1c[nH]c2ccccc12)C(N)=O)[C@@H](C)CC` [BID-MM] registered a half-maximal inhibitory concentration (IC50) at Bcl-xL/BODIPY-BAK of 0.62 ± 0.02 µM. The compound further showed an IC50 at Mcl-1/FITC-NOXA-B of 1.6 ± 0.12 µM. Also, at Bcl-xL, the Kd stood at 0.107 ± 0.029 µM, the koff amounted to 0.003 s⁻¹ and the kon worked out at 31000 M⁻¹ s⁻¹.

As to `CCCC[C@H](NC(=O)[C@H](CO)NC(=O)[C@H](CC(=O)O)NC(=O)CNC(=O)[C@@H](NC(=O)[C@H](CCC(N)=O)NC(=O)[C@H](C)NC(=O)[C@H](CC(C)C)NC(=O)[C@H](Cc1c[nH]cn1)NC(=O)[C@H](CCCNC(=N)N)NC(=O)[C@H](C)NC(=O)[C@@H](NC(=O)[C@H](CC(N)=O)NC(=O)[C@H](CCCNC(=N)N)NC(=O)[C@@H](NC(=O)[C@@H](NC(=O)[C@H](CC(=O)O)NC(=O)[C@H](CCC(=O)O)NC(C)=O)[C@@H](C)CC)[C@@H](C)CC)[C@@H](C)CC)C(C)C)C(=O)N[C@@H](CC(=O)O)C(=O)N[C@@H](CCCNC(=N)N)C(=O)N[C@@H](CO)C(=O)N[C@H](C(=O)N[C@@H](Cc1c[nH]c2ccccc12)C(N)=O)[C@@H](C)CC` [BID-WT, reference compound] (Ac-EDIIRNIARHLAQVGDS[Nle]DRSIW-NH2), the IC50 at Bcl-xL/BODIPY-BAK was 1.44 ± 0.05 µM. For the same compound, at Mcl-1/FITC-NOXA-B, the half-inhibitory concentration (IC50) was found to be 0.39 ± 0.08 µM. Also, on Bcl-xL, the Kd was found to be 0.057 ± 0.016 µM, the koff was 0.01 s⁻¹ and the kon is 180000 M⁻¹ s⁻¹.

The record behind these values is paper PMC5618334, “Hydrocarbon constrained peptides – understanding preorganisation and binding affinity” (Chemical Science, 2016).
